For one data set, the target named is T1, HER2 ECD (Homo sapiens, UniProt P04626).
T1 construct: Fc (human IgG Fc); purchased Creative BioMart
The data set is described as follows: Surface plasmon resonance (SPR) binding to HER2.

For data set [1], the system named is P-HER2. The data set is described as follows: Western blot of HER2 phosphorylation in SKBR3 cells. Format: cell-based, human. Conditions: for inhibition of HER2 phosphorylation (in words): SKBR3 cell lysates, western blot; for expression of P-HER2: 10 μM. Here is the method: (§1) SKBR3 cells were seeded into a 6-well plate at a concentration of 1×10^5 cells/well. After 12 h attachment at 37° C. and 5% CO2, the cells were starved overnight in serum-reduced McCoy's 5A Medium followed by treatment with different concentration of M-3-6 or M-3-6-D for 4 h, and then washed with ice-cold PBS and resuspended in ice-cold RIPA buffer supplemented with Halt Protease and Phosphatase Inhibitor Cocktail. Subsequently, the cells were incubated on ice for 10 min and centrifuged at 14,000×g at 4° C. for 10 min. An equal amount of protein was run on 4-12% Bis-Tris gels, transferred to polyvinylidene difluoride membranes (Millipore) and western blotted with anti-phosphorylated HER2, anti-phosphorylated AKT, anti-phosphorylated ERK and GAPDH. The experiments were conducted in triplicates and repeated for three times.
On the technique in general: A western blot detects proteins with antibodies after separation by electrophoresis.

A further data set relates to P-ERK. The data set is described as follows: Western blot of ERK phosphorylation in SKBR3 cells. Format: cell-based. Conditions: for phosphorylation of ERK (in words): SKBR3 cell lysates, western blot. As for the experimental part:
as §1

The next data set concerns SKBR3 cells. The data set is described as follows: Inhibition of EGF-induced cell proliferation (CCK-8). Format: cell-based. Particulars: SKBR3, EGF 100 ng/mL. Here is the method:
SKBR3 cells were cultured in McCoy's 5A Medium (Gibco) medium containing 10% fetal bovine serum and 1% penicillin/streptomycin in an atmosphere of 5% CO2 at 37° C.
SKBR3 cells in good condition were seeded into a 96-well plate at a concentration of 1×10^3 cells/well in 100 μL of complete growth medium. After 24 hours of attachment at 37° C. and 5% CO2, medium was replaced by fresh serum reduced McCoy's 5A Medium and cell were serum-starved overnight. Then serum-reduced EGF (100 ng/mL) McCoy's 5A Medium in the presence of different concentration of M-3-6 and M-3-6-D was added to the cells in hexaplicate. After 72 h, the CCK-8 reagents were added according to the manufacturer's recommendations.

The next data set concerns SKBR3 tumor xenograft. The data set is described as follows: Antitumor study in SKBR3 xenograft nude mice, tumor volume. Format: in vivo, mouse. Conditions: for tumor volume after the last drug injection on day 12: after end of dosing, until day 24.
For data set [2], the system named is P-HER2. The data set is described as follows: Immunohistochemical staining of SKBR3 tumor sections. The data set is classed as in vivo, mouse. Conditions: tumors resected after sacrifice. Here is the method: For the immunohistochemical analysis, the hydrated paraffin section was incubated in a blocking solution (10% donkey serum +5% nonfat dry milk +4% BSA +0.1% Triton X-100) for 10 min, and then incubated at 4° C. overnight with anti-P-HER2, P-AKT, P-ERK. After washing with PBS, the sections were incubated with diluted (1:200) biotinylated secondary antibody for 30 min. Subsequently, the sections were washed again in PBS and incubated for 30 min with the preformed avidin-horseradish peroxidase macromolecular complex. Development of peroxidase reaction was achieved by incubation in 0.01% 3, 3-diaminobenzidine tetrahydrochloride (DAB) in PBS containing 0.01% hydrogen peroxide for approximately 5 min at room temperature. Sections were then washed thoroughly in tap water, counterstained in haematoxylin, dehydrated in absolute alcohol, cleared in xylene and mounted in synthetic resin for microscopic examination.

The next data set concerns pronase. Particulars: 0.1 mg/mL pronase, 100 mM ammonium bicarbonate buffer, 37° C., 24 h.
For data set [3] the following is noted: i.p. every two days for two weeks.
Method: SKBR3 cells were harvested, resuspended in PBS, and injected subcutaneously into 4-6 weeks old Male BALB/c nude mice. […] Mice were injected through the intraperitoneal every two days for seven injections.
In the next data set the target is T2, HER2 (Homo sapiens, UniProt P04626).
T2 construct: Fc (human IgG Fc); purchased Creative BioMart
T2 sequence (P04626 23-652): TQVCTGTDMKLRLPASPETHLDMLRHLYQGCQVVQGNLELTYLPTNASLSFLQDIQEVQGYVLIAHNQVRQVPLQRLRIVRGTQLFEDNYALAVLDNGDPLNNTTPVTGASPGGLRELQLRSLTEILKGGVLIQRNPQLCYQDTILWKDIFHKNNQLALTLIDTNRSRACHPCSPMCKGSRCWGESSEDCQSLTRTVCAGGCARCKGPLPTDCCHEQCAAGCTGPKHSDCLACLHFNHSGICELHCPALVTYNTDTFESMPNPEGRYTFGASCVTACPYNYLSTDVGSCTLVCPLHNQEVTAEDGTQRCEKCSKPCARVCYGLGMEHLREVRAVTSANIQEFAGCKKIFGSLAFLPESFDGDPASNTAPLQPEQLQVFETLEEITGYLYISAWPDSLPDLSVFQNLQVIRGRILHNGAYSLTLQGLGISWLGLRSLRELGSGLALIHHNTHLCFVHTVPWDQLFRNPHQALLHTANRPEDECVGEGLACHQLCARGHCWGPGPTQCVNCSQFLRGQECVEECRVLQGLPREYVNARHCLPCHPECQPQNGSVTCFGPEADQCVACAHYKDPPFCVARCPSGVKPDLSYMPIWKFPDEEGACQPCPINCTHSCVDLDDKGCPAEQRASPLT
The data set is described as follows: Fluorescence polarization (FP) binding assay. Particulars: 50 nM FITC labeled AApeptide, HER2 0 to 2 μM in PBS. Here is the method:
The FP experiment was performed by incubating 50 nM FITC labeled AApeptides with HER2 (0 to 2 μM) in PBS. Dissociation constants (Kd) was determined by plotting the fluorescence anisotropy values as a function of protein concentration, and the plots were fitted to the following equation. The Lst is the concentration of the AApeptides and the x stands for the concentration of the protein. The experiments were conducted in triplicates and repeated for three times. y=FPmin+(FPmax−FPmin)*(KD+Lst+x-sqrt((KD+Lst+x)^2−4*Lst*x))/(2*Lst)
For orientation: In fluorescence polarisation assays a small probe gives low polarisation when free and higher when bound to something large.

The target in another data set is EGFR (Homo sapiens, UniProt P00533). The data set is described as follows: Surface plasmon resonance (SPR) binding to EGFR (selectivity). Here is the method: Next, the binding affinity of both M-3-6 and M-3-6-D to HER2 ECD in vitro were measured by surface plasmon resonance (SPR) assay (FIG. 10 in supporting information). […]. In addition, EGFR, known as ERBB1, another member of the human epidermal growth factor receptor family was chosen to test the selectivity of M-3-6. […].
EGFR, sequence (P00533 25-1210): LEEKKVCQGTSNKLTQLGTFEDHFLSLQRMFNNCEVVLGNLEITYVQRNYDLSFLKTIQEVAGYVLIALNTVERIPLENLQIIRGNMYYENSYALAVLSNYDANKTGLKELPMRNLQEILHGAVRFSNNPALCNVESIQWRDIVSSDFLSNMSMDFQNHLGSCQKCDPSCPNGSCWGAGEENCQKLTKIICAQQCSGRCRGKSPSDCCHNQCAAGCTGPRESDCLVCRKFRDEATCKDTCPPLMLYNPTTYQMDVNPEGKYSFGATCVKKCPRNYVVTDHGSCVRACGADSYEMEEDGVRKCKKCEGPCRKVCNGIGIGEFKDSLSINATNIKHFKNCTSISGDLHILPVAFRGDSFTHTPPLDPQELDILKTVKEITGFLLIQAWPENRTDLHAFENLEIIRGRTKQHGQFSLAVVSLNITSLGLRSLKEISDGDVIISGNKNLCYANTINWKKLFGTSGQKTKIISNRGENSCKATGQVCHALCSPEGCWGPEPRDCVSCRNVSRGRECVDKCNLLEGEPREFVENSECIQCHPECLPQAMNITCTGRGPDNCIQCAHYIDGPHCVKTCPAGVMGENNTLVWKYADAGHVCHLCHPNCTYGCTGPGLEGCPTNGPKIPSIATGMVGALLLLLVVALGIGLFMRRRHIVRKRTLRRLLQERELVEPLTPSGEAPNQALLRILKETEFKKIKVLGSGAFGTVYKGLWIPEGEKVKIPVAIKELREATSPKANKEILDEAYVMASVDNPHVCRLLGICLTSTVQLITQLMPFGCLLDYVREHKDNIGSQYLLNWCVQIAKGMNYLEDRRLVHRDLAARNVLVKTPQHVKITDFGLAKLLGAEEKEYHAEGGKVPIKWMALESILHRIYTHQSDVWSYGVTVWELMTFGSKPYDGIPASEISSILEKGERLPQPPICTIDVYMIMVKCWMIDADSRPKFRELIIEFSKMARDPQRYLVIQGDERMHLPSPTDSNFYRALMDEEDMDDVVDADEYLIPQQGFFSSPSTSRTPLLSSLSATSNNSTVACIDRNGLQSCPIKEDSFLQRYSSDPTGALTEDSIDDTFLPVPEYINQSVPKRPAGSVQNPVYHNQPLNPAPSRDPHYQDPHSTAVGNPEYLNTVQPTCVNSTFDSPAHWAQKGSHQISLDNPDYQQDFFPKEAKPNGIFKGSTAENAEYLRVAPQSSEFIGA
Binding kinetics of M-3-6 or M-3-6-D to HER2 was measured by surface plasmon resonance (OpenSPR, Nicoyalife). After HER2 was covalently coupled to the carboxyl sensor chips (Nicoyalife), M-3-6 or M-3-6-D in PBS running buffer (pH 7.4) was slowly flowed over the sensor chip for 5 min to allow interaction. The running buffer was then allowed to flow for 10 min to collect the dissociation data. After subtracting the background, the signal response vs. time curve was obtained, binding kinetic parameters were obtained by fitting the curve to a one-to-one binding model using Trace-Drawer (Nicoyalife) software.
In general terms: SPR reads the build-up and loss of mass on a sensor chip optically.

The next data set deals with P-AKT. The data set is described as follows: Western blot of AKT phosphorylation in SKBR3 cells. Format: cell-based. Here is the method: as §1
[4] abbreviates: 8 mg/kg i.p. every two days for two weeks.

Values joined by “and” are separate entries in the source; they are usually repeats but may differ in a detail not shown here. Equal entries are not always repeated. “Also recorded” adds a separate entry of the source.

For orientation: Kd means the free concentration of one partner at which half of the binding sites on the other are occupied at equilibrium, for simple one-to-one binding. The term IC50 denotes the point on the concentration scale where inhibition reaches its midpoint.

T1 sequence (P04626 23-652): as the sequence (P04626 23-652) above
Method for SKBR3 tumor xenograft: Male BALB/c nude mice, 4-6 weeks old, were provided by the Shanghai Bikai Experimental Animal Center, with the license number SOXK (Hu) 2008-0016, and maintained under specific-pathogen-free conditions.
SKBR3 cells were harvested, resuspended in PBS, and injected subcutaneously into 4-6 weeks old Male BALB/c nude mice. […] Mice were injected through the intraperitoneal every two days for seven injections. 12 days after injection, the mice in each group were killed, and the tumors were removed for examination. The tumor volumes were determined by measuring length (1) and width (w) and calculating volume (V=lw^2/2).
From the text for pronase: Then, the reaction mixtures were concentrated in a speed vacuum to remove water and ammonium bicarbonate. The resulting residues were re-dissolved in H2O/MeCN and analyzed on a Waters analytical HPLC system.

As for `COc1cc(CC(=O)N2CC(=O)N[C@@H](Cc3ccccc3)CN(C(=O)Cc3ccc4ccccc4c3)CC(=O)N[C@@H](CCCCN)CN(C(=O)Cc3ccc4c(c3)OCO4)CC(=O)N[C@@H](CCCCN)CN(CC(=O)N[C@@H](CCCCNC(=O)COCCOCCNC(=O)Cn3cc(COc4cc(OCc5cn(CC(=O)NCCOCCOCC(=O)NCCCC[C@H](NC(=O)CN6C[C@H](CCCCN)NC(=O)CN(C(=O)Cc7ccc8c(c7)OCO8)C[C@H](CCCCN)NC(=O)CN(C(=O)Cc7ccc8ccccc8c7)C[C@H](Cc7ccccc7)NC(=O)CN(C(=O)Cc7cc(OC)cc(OC)c7)C[C@H](CC(C)C)NC(=O)c7ccc(cc7)CSCCC6=O)C(N)=O)nn5)cc(C(=O)NCCNC(=O)OC(C)(C)C)c4)nn3)C(N)=O)C(=O)CCSCc3ccc(cc3)C(=O)N[C@@H](CC(C)C)C2)cc(OC)c1` [M-3-6-D], the “improvement of binding to HER2 compared with monomer M-3-6” value on HER2 ECD was roughly 7 fold. Moreover, the “inhibition of HER2 phosphorylation (in words)” value in the data set on P-HER2 [1] is recorded as “even stronger inhibition of phosphorylation than M-3-6; also recorded: much more effective phosphorylation inhibition compared with M-3-6”. The “expression of P-HER2” value in the data set with P-HER2 [1] (SKBR3 cells, 4 h) is given as “almost complete blocked”. The “phosphorylation of ERK (in words)” value with P-ERK is on record as “more pronounced effect on the suppression of P-ERK compared with P-AKT”. In addition, the “inhibition of EGF-induced proliferation (in words)” value in the data set on SKBR3 cells is on record as “inhibited EGF-induced proliferation significantly in a dose-dependent manner”. Also, in the data set on SKBR3 tumor xenograft (setting [4]), the “tumor volume / antitumor effect” value is reported as “significantly inhibit the tumor growth; also recorded: significant antitumor effect”. Moreover, in the data set with SKBR3 tumor xenograft, the “tumor volume after the last drug injection on day 12” value is “significant reduction in tumor volume was still observed”. Further, in the data set with P-HER2 [2], the “phosphorylation level of HER2 in tumor sections” value is on record as “comparable efficiency with trastuzumab”. Besides, the “degradation by pronase monitored by HPLC” value in the data set with pronase is “no detectable degradation”. Moreover, the “effect on body weight gain” value in data set [3] is on record as “ignorable effect on the body weight gain”.

As to `COc1cc(CC(=O)N2CC(=O)N[C@@H](Cc3ccccc3)CN(C(=O)Cc3ccc4ccccc4c3)CC(=O)N[C@@H](CCCCN)CN(C(=O)Cc3ccc4c(c3)OCO4)CC(=O)N[C@@H](CCCCN)CN(CC(=O)NCCC(=O)NC(CCCCNC(=S)Nc3ccc(-c4c5ccc(=O)cc-5oc5cc(O)ccc45)c(C(=O)O)c3)C(N)=O)C(=O)CCSCc3ccc(cc3)C(=O)N[C@@H](CC(C)C)C2)cc(OC)c1` (some centres unmarked) [M-3-6-F], the Kd at HER2 was 280 nM and 278 nM.

On to `COc1cc(CC(=O)N2CC(=O)N[C@@H](Cc3ccccc3)CN(C(=O)Cc3ccc4ccccc4c3)CC(=O)N[C@@H](CCCCN)CN(C(=O)Cc3ccc4c(c3)OCO4)CC(=O)N[C@@H](CCCCN)CN(CC(N)=O)C(=O)CCSCc3ccc(cc3)C(=O)N[C@@H](CC(C)C)C2)cc(OC)c1` [M-3-6], for which the “weaker binding to EGFR than to HER2” value at EGFR is on record as 10 fold. The “inhibition of HER2 phosphorylation (in words)” value in the data set with P-HER2 [1] is “dose-dependent inhibition of HER2 receptor phosphorylation”. Besides, the IC50 is 12.9 µM in the data set on P-HER2 [1] (SKBR3 cells, 0-30 μM, 4 h, read-out: IC50 inhibition of HER2 phosphorylation); 16.9 µM in the data set on P-AKT (SKBR3 cells, 4 h); 10.6 µM in the data set on P-ERK (SKBR3 cells, 4 h); 17.9 µM in the data set on SKBR3 cells (serum-reduced, 72 h, read-out: IC50 antiproliferative activity on EGF-stimulated cells). The “expression of P-HER2” value in the data set with P-HER2 [1] (SKBR3 cells, 4 h) is on record as “relatively high”. Moreover, in the data set with P-AKT (SKBR3 cell lysates, western blot), the “phosphorylation of AKT (in words)” value is “reduction in the phosphorylation of AKT and ERK”. Moreover, the “phosphorylation of ERK (in words)” value in the data set on P-ERK is “reduction in the phosphorylation of AKT and ERK”. For the same molecule, the “inhibition of EGF-induced proliferation (in words)” value in the data set with SKBR3 cells is given as “inhibited EGF-induced proliferation significantly in a dose-dependent manner”. Besides, the “tumor volume / antitumor effect” value in the data set with SKBR3 tumor xenograft (setting [4]) is listed as “no significant reduction in tumor volume”; in the data set with SKBR3 tumor xenograft (32 mg/kg i.p. every two days for two weeks), “much more improved antitumor effect”. Moreover, in the data set on SKBR3 tumor xenograft, the “tumor volume after the last drug injection on day 12” value is given as “significant tumor growth”. Besides, in the data set on P-HER2 [2], the “phosphorylation level of HER2 in tumor sections” value was “modest inhibitory effect”. Moreover, the “effect on body weight gain” value in data set [3] was “ignorable effect on the body weight gain”.

The record behind these values is patent US12162874B2, “Peptidomimetic-based antibody surrogate for HER2” (University of South Florida, priority 2021, dated 2024).
